One assay relates to EGFR-ex19del. Briefly: Western blot of EGFR-ex19del bait phosphorylation after erlotinib (anti-phospho-EGFR). To be noted: 0, 250 or 500 nM Erlotinib, 20 h, serum-containing media. In general terms: A western blot detects proteins with antibodies after separation by electrophoresis.
The next assay has as its target T1, ErbB4/Shc1 interaction (Homo sapiens, UniProt Q15303).
T1 construct: with the advantage of testing full-length integral membrane proteins; (GGGGS)2 linker-Cub (human ubiquitin aa 35-76)-transcription factor (GAL4-mNFkB or mLexA-VP16; expressed in transfected cells; HEK293T reporter lines are used throughout)
Briefly: MaMTH luciferase reporter assay, ErbB4 bait / Shc1 prey with TKI-PD158780. The class given is cell-based. To be noted: presence/absence of TKI-PD158780. As for the experimental part:
FIG. 7: (a) Graph illustrating relative lucifease activity of serum stimulated PPIs. Stable 5×GAL4UAS-luciferase reporter cell lines were co-transfected with ErbB2 bait and preys. Luciferase activity was measured 24 h following transfection in the absence/presence of serum. […] The plotted values represent relative-luciferase signals calculated as fold-change increase above averaged negative controls. (b) Graph illustrating relative luciferase activity of drug-inhibited protein-protein interactions. Following transfection, ErbB4 interaction with either Shc1 or non-interacting Pex13 was measured in presence/absence of non-specfic TKI-PD158780. Plotted values represent relative luciferase signals calculated as fold-change increase above bait only controls.
We then sought to more specifically focus on the ErbB subfamily of receptor tyrosine kinases (RTK) to investigate ligand-dependent and drug-inhibited interactions. The ErbB family consists of 4 closely related receptors: EGFR, ErbB2, ErbB3, and ErbB4. Elucidation of cell signaling via all four ErbB receptors is of great therapeutic interest since they are frequently found mutated or overexpressed in several cancer. […]

T1 sequence (Q15303 26-1308): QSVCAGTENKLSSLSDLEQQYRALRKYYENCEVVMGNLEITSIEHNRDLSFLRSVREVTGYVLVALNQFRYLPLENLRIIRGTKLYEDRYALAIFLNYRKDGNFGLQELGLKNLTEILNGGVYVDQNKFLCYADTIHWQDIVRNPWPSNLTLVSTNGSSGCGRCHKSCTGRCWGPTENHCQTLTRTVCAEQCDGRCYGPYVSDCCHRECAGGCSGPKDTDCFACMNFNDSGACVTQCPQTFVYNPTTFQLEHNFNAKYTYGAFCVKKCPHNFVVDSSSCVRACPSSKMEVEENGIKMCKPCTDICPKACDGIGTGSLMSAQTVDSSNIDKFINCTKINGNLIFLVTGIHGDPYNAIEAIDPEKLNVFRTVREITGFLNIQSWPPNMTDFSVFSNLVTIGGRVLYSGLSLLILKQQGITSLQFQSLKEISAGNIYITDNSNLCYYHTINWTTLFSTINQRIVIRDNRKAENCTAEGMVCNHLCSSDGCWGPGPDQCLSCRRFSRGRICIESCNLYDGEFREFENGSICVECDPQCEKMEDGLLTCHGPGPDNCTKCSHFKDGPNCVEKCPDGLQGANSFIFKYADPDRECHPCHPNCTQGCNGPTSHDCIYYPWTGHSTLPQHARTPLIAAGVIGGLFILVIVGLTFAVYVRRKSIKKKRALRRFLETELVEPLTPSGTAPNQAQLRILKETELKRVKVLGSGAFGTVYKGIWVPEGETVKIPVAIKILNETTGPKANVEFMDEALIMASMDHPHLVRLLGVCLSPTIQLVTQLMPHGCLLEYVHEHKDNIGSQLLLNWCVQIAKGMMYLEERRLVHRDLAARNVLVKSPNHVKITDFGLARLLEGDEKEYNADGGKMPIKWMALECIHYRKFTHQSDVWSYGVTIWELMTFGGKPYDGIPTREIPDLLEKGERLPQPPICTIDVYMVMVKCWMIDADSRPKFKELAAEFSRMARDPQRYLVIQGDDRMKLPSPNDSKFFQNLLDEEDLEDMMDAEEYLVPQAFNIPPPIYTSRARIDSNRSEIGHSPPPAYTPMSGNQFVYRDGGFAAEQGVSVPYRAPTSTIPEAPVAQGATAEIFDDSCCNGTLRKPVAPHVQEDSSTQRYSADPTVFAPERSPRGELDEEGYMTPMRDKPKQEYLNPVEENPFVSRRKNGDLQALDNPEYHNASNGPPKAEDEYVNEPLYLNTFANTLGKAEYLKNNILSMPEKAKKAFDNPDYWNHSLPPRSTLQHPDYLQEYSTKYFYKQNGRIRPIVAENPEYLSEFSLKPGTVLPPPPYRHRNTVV
Text for EGFR-ex19del: (a) Left panel: Relative luciferase activity of stable 5×GAL4UAS-HEK293T luciferase reporter cells co-transfected with various oncogenic ErbB baits and Shc1 prey. […] (b) Luciferase activity of sable 5×GAL4UAS-HEK293T luciferase reporter cells co-transfected with EGFR-Wt, EGFR-L858R or EGFR-D855A-kinase dead baits and Shc1 adaptor prey. (c)-(d) Western Blot showing expression of various receptors using anti-V5 antibodies and phosphor-tyrosine-specific antibodies. […] (h) Western Blot analysis of EGFR-Wt, EGFR-L858R, EGFR-exon19de and EGFR-L858R/T790A baits transfected into stable5×GAL4UAS-luciferase HEK293T reporter cells in serum-containing media.
Western blot analysis was performed using standard protocols. Briefly, cells were either directly harvested in 2×sample buffer or harvested in 1×reporter lysis buffer (Promega) containing protease inhibitors (Complete-EDTA, Roche) and 2×sample buffer was added after freezing the cells at −80° C. For phospho-specific antibodies, cells were lysed in Ripa buffer containing Na-orthovanadate, PMSF and protease inhibitor and 2×SB was added and samples were immediately boiled at 95° C. for 5 min and proceeded for Western Blot analysis. […] Transferred samples were immunoblotted with primary antibodies, followed by incubation with HRP-coupled secondary antibodies, and detection was performed using GE-Healthcare enhanced luminescence. […]

Regarding `C#Cc1cccc(Nc2ncnc3cc(OCCOC)c(OCCOC)cc23)c1` [Erlotinib], the “Receptor phosphorylation upon Erlotinib treatment (Western blot)” value in the assay on EGFR-ex19del is “sensitive to Erlotinib”.

Take `CNc1cc2c(Nc3cccc(Br)c3)ncnc2cn1` [TKI-PD158780]: on ErbB4/Shc1 interaction, the “Effect on Shc1-adaptor protein binding to ErbB4” value is “reduced Shc1-adaptor protein binding”.
